Reference: ChEMBL document CHEMBL5291721, “A preclinical secondary pharmacology resource illuminates target-adverse drug reaction associations of marketed drugs” (Nat Commun, 2023)

How the values were obtained:
[1] = molecular target: T1, Alpha-2B adrenergic receptor (Homo sapiens, UniProt P18089)
T1 sequence (P18089 whole entry): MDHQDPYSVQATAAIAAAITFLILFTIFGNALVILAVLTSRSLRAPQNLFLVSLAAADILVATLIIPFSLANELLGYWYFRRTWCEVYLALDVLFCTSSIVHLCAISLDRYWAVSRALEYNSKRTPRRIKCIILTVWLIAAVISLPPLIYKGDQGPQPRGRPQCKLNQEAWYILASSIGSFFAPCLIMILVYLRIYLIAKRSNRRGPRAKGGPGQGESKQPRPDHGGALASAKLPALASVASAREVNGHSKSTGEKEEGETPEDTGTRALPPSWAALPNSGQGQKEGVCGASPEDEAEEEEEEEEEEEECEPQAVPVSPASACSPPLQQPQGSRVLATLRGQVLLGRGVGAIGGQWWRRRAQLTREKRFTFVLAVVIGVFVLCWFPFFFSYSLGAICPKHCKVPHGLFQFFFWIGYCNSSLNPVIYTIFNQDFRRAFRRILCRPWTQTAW

[2] = molecular target: T2, 5-hydroxytryptamine receptor 1A (Homo sapiens, UniProt P08908); assay type: functional, cell-based
T2 sequence (P08908 whole entry): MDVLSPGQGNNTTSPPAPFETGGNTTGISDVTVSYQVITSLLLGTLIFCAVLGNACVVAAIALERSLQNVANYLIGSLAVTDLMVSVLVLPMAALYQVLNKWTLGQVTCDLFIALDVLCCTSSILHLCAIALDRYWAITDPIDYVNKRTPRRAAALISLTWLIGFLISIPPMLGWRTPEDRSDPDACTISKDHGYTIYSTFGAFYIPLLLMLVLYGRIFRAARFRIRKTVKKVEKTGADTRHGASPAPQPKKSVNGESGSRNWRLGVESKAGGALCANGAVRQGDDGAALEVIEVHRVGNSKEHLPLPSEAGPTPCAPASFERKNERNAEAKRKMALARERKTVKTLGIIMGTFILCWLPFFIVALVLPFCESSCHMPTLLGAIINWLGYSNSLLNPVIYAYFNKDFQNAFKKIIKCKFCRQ

[3] = molecular target: 5-hydroxytryptamine receptor 2B (Homo sapiens, UniProt P41595); assay type: functional, cell-based
Histamine H3 receptor = Histamine H3 receptor (Homo sapiens, UniProt Q9Y5N1)
[4] = molecular target: Voltage-gated inwardly rectifying potassium channel KCNH2 (Homo sapiens, UniProt Q12809); assay type: functional; settings: read-out: AC50
Progesterone receptor = molecular target: T3, Progesterone receptor (Homo sapiens, UniProt P06401)
T3 sequence (P06401 whole entry): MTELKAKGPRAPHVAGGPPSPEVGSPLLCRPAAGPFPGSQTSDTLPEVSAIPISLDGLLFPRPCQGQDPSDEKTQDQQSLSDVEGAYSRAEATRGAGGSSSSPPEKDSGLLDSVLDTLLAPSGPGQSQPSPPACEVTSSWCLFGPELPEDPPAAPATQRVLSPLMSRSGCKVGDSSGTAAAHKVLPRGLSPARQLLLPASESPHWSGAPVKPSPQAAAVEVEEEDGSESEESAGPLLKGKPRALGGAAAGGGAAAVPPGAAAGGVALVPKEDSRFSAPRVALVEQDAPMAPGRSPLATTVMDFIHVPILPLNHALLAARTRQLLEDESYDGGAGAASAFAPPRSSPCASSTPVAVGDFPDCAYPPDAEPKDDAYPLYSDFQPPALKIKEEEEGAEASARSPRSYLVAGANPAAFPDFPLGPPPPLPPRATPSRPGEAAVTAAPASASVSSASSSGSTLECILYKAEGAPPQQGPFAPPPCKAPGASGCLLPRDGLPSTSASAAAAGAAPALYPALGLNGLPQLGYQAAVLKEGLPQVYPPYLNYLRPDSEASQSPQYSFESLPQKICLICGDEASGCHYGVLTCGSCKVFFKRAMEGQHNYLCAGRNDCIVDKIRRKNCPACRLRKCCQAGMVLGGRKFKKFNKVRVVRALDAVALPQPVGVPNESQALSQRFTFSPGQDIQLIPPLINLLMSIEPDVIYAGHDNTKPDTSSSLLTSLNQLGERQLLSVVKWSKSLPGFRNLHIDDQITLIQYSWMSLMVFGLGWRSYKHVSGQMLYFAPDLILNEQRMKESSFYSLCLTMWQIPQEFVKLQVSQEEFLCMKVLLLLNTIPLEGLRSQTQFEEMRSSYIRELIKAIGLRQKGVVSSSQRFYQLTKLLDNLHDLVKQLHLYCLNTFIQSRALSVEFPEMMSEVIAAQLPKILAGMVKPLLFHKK

Measured: AC50
Note: assay procedure not described here.

Sequence of Voltage-gated inwardly rectifying potassium channel KCNH2 (Q12809 whole entry): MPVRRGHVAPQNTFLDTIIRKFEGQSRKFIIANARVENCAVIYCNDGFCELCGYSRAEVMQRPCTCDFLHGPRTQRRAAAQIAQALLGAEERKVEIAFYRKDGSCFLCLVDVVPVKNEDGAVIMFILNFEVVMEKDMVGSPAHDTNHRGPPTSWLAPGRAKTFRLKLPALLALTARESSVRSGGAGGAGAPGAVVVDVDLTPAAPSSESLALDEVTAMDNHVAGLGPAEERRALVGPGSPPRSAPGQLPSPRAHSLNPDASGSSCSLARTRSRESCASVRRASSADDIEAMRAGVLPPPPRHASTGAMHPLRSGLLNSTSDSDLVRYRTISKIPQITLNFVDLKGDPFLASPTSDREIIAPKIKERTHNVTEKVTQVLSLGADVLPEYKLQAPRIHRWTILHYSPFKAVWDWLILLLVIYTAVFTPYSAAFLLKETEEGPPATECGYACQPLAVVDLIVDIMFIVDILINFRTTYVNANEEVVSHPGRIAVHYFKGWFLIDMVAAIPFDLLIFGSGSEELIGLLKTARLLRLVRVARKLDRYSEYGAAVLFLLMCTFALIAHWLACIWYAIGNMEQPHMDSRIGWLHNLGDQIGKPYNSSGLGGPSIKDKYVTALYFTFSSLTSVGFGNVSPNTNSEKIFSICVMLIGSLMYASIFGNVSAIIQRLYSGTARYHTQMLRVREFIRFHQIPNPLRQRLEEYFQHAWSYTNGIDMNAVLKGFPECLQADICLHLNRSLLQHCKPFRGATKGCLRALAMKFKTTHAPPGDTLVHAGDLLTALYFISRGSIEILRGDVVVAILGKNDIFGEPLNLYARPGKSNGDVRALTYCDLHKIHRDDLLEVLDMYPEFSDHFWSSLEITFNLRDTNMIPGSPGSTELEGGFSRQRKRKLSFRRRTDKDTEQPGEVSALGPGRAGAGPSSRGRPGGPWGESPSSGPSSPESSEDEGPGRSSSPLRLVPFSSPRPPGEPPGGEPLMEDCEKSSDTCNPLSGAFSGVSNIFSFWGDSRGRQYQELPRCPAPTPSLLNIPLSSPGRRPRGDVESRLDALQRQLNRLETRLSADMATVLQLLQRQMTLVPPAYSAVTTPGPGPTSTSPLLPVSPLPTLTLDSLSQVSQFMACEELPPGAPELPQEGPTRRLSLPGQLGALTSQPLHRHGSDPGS
Sequence of Histamine H3 receptor (Q9Y5N1 whole entry): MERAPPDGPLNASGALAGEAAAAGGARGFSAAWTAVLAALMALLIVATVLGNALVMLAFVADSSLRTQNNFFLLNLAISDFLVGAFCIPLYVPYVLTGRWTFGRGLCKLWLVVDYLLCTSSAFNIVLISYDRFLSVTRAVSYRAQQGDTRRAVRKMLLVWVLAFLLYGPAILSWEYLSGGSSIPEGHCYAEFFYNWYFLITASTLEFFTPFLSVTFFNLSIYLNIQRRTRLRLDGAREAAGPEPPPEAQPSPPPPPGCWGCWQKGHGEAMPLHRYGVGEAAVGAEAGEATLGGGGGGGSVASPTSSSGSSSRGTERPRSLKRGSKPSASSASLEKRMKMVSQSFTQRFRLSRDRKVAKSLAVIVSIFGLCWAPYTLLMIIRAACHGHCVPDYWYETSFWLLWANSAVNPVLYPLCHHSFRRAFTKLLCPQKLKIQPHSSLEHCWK
Sequence of 5-hydroxytryptamine receptor 2B (P41595 whole entry): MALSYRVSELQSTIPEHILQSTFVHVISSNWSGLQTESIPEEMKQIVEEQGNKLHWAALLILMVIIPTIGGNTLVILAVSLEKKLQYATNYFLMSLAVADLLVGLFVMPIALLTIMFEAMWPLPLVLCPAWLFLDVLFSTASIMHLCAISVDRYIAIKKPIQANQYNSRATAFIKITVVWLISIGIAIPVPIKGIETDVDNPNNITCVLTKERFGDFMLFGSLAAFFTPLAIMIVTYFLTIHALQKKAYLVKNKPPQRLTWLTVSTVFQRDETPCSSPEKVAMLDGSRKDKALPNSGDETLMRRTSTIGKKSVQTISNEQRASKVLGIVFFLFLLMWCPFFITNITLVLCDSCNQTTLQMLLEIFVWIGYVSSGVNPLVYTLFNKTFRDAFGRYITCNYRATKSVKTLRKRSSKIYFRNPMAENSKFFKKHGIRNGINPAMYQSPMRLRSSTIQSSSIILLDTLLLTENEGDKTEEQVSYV

CCN(CC)C(=O)C1(c2ccccc2)CC1CN (stereo unspecified)
> 30 µM: [1] | [2] | [3] | Histamine H3 receptor

CN(C)C(=O)Oc1cccc([N+](C)(C)C)c1 [NEOSTIGMINE]
> 30 µM: [4] | Progesterone receptor
